Measurements reported in the supplement of paper PMC10307832.

Columns and labels:
Assay in all cases: relative viability (nuclei count vs DMSO), 5 days (fraction); higher = more cells survive
CUDC-101 + Decitabine = compound: C#Cc1cccc(Nc2ncnc3cc(OC)c(OCCCCCCC(=O)NO)cc23)c1 [CUDC-101] + Nc1ncn([C@H]2C[C@H](O)[C@@H](CO)O2)c(=O)n1 [Decitabine] (partner 2 µM)
How it was run: (§1)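 The day after seeding in 1536-well plates, lung cancer cell lines were treated by pin tool with a single drug, or with a fixed anchor-drug dose together with five library-drug doses (not always all listed) in √10 steps. After 5 days, a combined fix-and-stain solution (final 0.05% Triton X-100, 1% formaldehyde, 1 ug/ml Hoechst) was added. Nuclei counted on 4× images gave relative viability as treated counts over vehicle counts, reported as the median of duplicate plates.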

[1] = compound: C1=CC=C2C(=C1)N=C(S2)C(C#N)C3=NC(=NC=C3)NCCC4=CN=CC=C4 + Cc1nc(Nc2ncc(C(=O)Nc3c(C)cccc3Cl)s2)cc(N2CCN(CCO)CC2)n1 [Dasatinib] (partner 0.075 µM)
How it was run: as §1

[2] = compound: C1=CC=C2C(=C1)N=C(S2)C(C#N)C3=NC(=NC=C3)NCCC4=CN=CC=C4 + Nc1ncn([C@H]2C[C@H](O)[C@@H](CO)O2)c(=O)n1 [Decitabine] (partner 2 µM)
How it was run: as §1

NVP-TAE684 + Lapatinib = compound: COc1cc(N2CCC(N3CCN(C)CC3)CC2)ccc1Nc1ncc(Cl)c(Nc2ccccc2S(=O)(=O)C(C)C)n1 [NVP-TAE684] + CS(=O)(=O)CCNCc1ccc(-c2ccc3ncnc(Nc4ccc(OCc5cccc(F)c5)c(Cl)c4)c3c2)o1 [Lapatinib] (partner 2 µM)
How it was run: as §1

UMC-11 gave a relative viability (CUDC-101 + Decitabine; first compound 0.01 µM) of 0.761, a relative viability (CUDC-101 + Decitabine; first compound 0.03162 µM) of 0.477 and a relative viability (CUDC-101 + Decitabine; first compound 0.1 µM) of 0.601. It also gave a relative viability (CUDC-101 + Decitabine; first compound 0.3162 µM) of 0.462, a relative viability (CUDC-101 + Decitabine; first compound 1 µM) of 0.221 and a relative viability ([1]; first compound 0.005 µM) of 0.257. The relative viability ([1]; first compound 0.01581 µM) was 0.481, the relative viability ([1]; first compound 0.05 µM) was 0.447 and the relative viability ([1]; first compound 0.1581 µM) was 0.583. For the same cell line, the relative viability ([1]; first compound 0.5 µM) was 0.379, the relative viability ([2]; first compound 0.005 µM) was 0.546 and the relative viability ([2]; first compound 0.01581 µM) was 0.65. For the same cell line, the relative viability ([2]; first compound 0.05 µM) was 0.456, the relative viability ([2]; first compound 0.1581 µM) was 0.589 and the relative viability ([2]; first compound 0.5 µM) was 0.59. For the same cell line, the relative viability (NVP-TAE684 + Lapatinib; first compound 0.2 µM) was 1.03, the relative viability (NVP-TAE684 + Lapatinib; first compound 0.6325 µM) was 0.778 and the relative viability (NVP-TAE684 + Lapatinib; first compound 2 µM) was 0.683.
